Reference: patent US9695155B2, “Herbicidal substituted pyrimidinyloxy benzene compounds” (E. I. DU PONT DE NEMOURS AND COMPANY, priority 2013, dated 2017)

Assays:
velvetleaf = experiment: Test C postemergence; type: in vivo, Abutilon theophrasti; conditions: for Plant response rating (0 to 100), Velvetleaf: postemergence; for Plant response rating, Velvetleaf: Postemergence, scale 0 to 100 (0 no effect, 100 complete control)
Method in brief: (§1)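 Sown in loam/sand → sprayed pre-emergence; or grown to 1–4 leaves in peat mix → sprayed post-emergence. Same solvent/surfactant formulation both ways. Greenhouse 13–15 d. Score 0–100 visual.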

giant foxtail = experiment: Test A postemergence; type: in vivo, Setaria faberii
Method in brief: (§2)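 Visual injury scored 0–100 (100 = complete control) against untreated controls about 10 days after treatment in a greenhouse. Test chemicals, formulated with surfactant in non-phytotoxic solvent, were sprayed on soil preemergence or on 2-10 cm, one- to two-leaf plants postemergence.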

waterhemp = experiment: Test C postemergence; type: in vivo, Amaranthus rudis; conditions: for Plant response rating (0 to 100), Waterhemp: postemergence; for Plant response rating, Waterhemp: Postemergence, scale 0 to 100 (0 no effect, 100 complete control)
Method in brief: as §1

corn = experiment: Test C postemergence; type: in vivo, Zea mays; conditions: for Plant response rating, Corn: Postemergence
Method in brief: as §1

pigweed [1] = experiment: Test A postemergence; type: in vivo, Amaranthus retroflexus
Method in brief: as §2

pigweed [2] = experiment: Test A preemergence; type: in vivo, Amaranthus retroflexus; conditions: for Pigweed plant response rating: 0 to 100 scale, 0 no effect, 100 complete control, approx. 10 days
Method in brief: as §2

oilseed rape = experiment: Test C postemergence; type: in vivo, Brassica napus; conditions: for Plant response rating (0 to 100), Oilseed Rape: postemergence; for Plant response rating, Oilseed Rape: Postemergence, scale 0 to 100 (0 no effect, 100 complete control)
Method in brief: as §1

large (Lg) crabgrass [3] = experiment: Test C postemergence; type: in vivo, Digitaria sanguinalis; conditions: for Plant response rating, Crabgrass, Large: Postemergence
Method in brief: as §1

johnsongrass = experiment: Test C postemergence; type: in vivo, Sorghum halepense; conditions: for Plant response rating, Johnsongrass: Postemergence
Method in brief: as §1

large (Lg) crabgrass [4] = experiment: Test A postemergence; type: in vivo, Digitaria sanguinalis
Method in brief: as §2

large (Lg) crabgrass [5] = experiment: Test A preemergence; type: in vivo, Digitaria sanguinalis
Method in brief: as §2

[6] = 1000 g ai/ha, 0 to 100 scale, 0 no effect, 100 complete control
[7] = 16 g ai/ha, postemergence, visual rating, scale 0 to 100 (0 no effect, 100 complete control), 13 to 15 days
[8] = 31 g ai/ha, scale 0 to 100 (0 no effect, 100 complete control), 13 to 15 days
[9] = 62 g ai/ha, scale 0 to 100 (0 no effect, 100 complete control)
[10] = 8 g ai/ha, 0 is no effect, 100 is complete control
[11] = 16 g ai/ha, 0 is no effect, 100 is complete control
[12] = 8 g ai/ha, postemergence, 0 is no effect, 100 is complete control
[13] = 16 g ai/ha, postemergence, 0 is no effect, 100 is complete control
[14] = 125 g ai/ha, 0 to 100 scale where 0 is no effect and 100 is complete control
[15] = 500 g ai/ha, 0 to 100 scale where 0 is no effect and 100 is complete control

| Structure (SMILES) | Plant response rating (0 to 100), Velvetleaf (velvetleaf; 125 g ai/ha) | Plant response rating, Velvetleaf (velvetleaf; 31 g ai/ha, 13 to 15 days) | Plant response rating, Velvetleaf (velvetleaf; 62 g ai/ha) | Plant response rating, Foxtail, Giant (giant foxtail; [6]) | Plant response rating (0 to 100), Waterhemp (waterhemp; 125 g ai/ha) | Plant response rating, Waterhemp (waterhemp; 31 g ai/ha, 13 to 15 days) | Plant response rating, Waterhemp (waterhemp; 62 g ai/ha) | Plant response rating (0 to 100), Corn (corn; 125 g ai/ha, postemergence) | Plant response rating, Corn (corn; [8]) | Plant response rating, Corn (corn; [9]) | Plant response rating, Pigweed (pigweed [1]; [6]) | Pigweed plant response rating (pigweed [2]; 1000 g ai/ha) | Plant response rating (0 to 100), Oilseed Rape (oilseed rape; 125 g ai/ha) | Plant response rating, Oilseed Rape (oilseed rape; 31 g ai/ha, 13 to 15 days) | Plant response rating, Oilseed Rape (oilseed rape; 62 g ai/ha) | Plant response rating (0 to 100), Crabgrass, Large (large (Lg) crabgrass [3]; 125 g ai/ha, postemergence) | Plant response rating, Crabgrass, Large (large (Lg) crabgrass [3]; [8]) | Plant response rating, Crabgrass, Large (large (Lg) crabgrass [3]; [9]) | Plant response rating (0 to 100), Johnsongrass (johnsongrass; 125 g ai/ha, postemergence) | Plant response rating, Johnsongrass (johnsongrass; [9]) | also measured |
| --- | --- | --- | --- | --- | --- | --- | --- | --- | --- | --- | --- | --- | --- | --- | --- | --- | --- | --- | --- | --- | --- |
| Clc1cnc(Oc2cccc(Br)c2-n2cc(Br)cn2)nc1 [Compound 65] | 65 | 50 | 55 | 100 | 90 | 75 | 95 | 10 | 10 | 10 | 100 | 100 | 90 | 25 | 60 | 5 | 5 | 5 | 5 | 5 | Corn plant response rating (corn; [7]): 5; Crabgrass, Large plant response rating (large (Lg) crabgrass [3]; [7]): 5; Johnsongrass plant response rating (johnsongrass; [7]): 5; Plant response rating, Johnsongrass (johnsongrass; [8]): 5; Plant response rating, Crabgrass, Large (large (Lg) crabgrass [4]; [6]): 100; Plant response rating, Crabgrass, Large (large (Lg) crabgrass [5]; [6]): 100 |
| CC(=NO)c1cn(-c2c(Br)cccc2Oc2ncc(Cl)cn2)nn1 [Compound 115] |  |  |  | 90 |  |  |  |  |  |  | 100 | 100 |  |  |  |  |  |  |  |  | Plant response rating (0 to 100), Velvetleaf (velvetleaf; [10]): 5; Plant response rating (0 to 100), Velvetleaf (velvetleaf; [11]): 5; Plant response rating (0 to 100), Waterhemp (waterhemp; [10]): 5; Plant response rating (0 to 100), Waterhemp (waterhemp; [11]): 30; Plant response rating (0 to 100), Corn (corn; 4 g ai/ha, postemergence, 0 is no effect, 100 is complete control): 5; Plant response rating (0 to 100), Corn (corn; [12]): 10; Plant response rating (0 to 100), Corn (corn; [13]): 5; Plant response rating (0 to 100), Oilseed Rape (oilseed rape; [10]): 0; Plant response rating (0 to 100), Oilseed Rape (oilseed rape; [11]): 0; Plant response rating (0 to 100), Crabgrass, Large (large (Lg) crabgrass [3]; [12]): 5; Plant response rating (0 to 100), Crabgrass, Large (large (Lg) crabgrass [3]; [13]): 5; Plant response rating (0 to 100), Johnsongrass (johnsongrass; [12]): 5; Plant response rating (0 to 100), Johnsongrass (johnsongrass; [13]): 5; Plant response rating, Crabgrass, Large (large (Lg) crabgrass [4]; [6]): 90; Plant response rating, Crabgrass, Large (large (Lg) crabgrass [5]; [6]): 100 |
| N#Cc1cccc(Oc2ncc(Cl)cn2)c1-n1cnc(Br)c1 [Compound 74] | 50 | 30 | 35 |  | 60 | 35 | 60 | 15 | 10 | 10 |  |  | 40 | 35 | 40 | 15 | 5 | 5 | 25 | 0 | Plant response rating (0 to 100), Velvetleaf (velvetleaf; 250 g ai/ha): 65; Plant response rating, Foxtail, Giant (giant foxtail; [14]): 80; Plant response rating, Foxtail, Giant (giant foxtail; [15]): 90; Plant response rating (0 to 100), Waterhemp (waterhemp; 250 g ai/ha): 80; Plant response rating (0 to 100), Corn (corn; 250 g ai/ha, postemergence): 20; Plant response rating, Pigweed (pigweed [1]; [14]): 100; Plant response rating, Pigweed (pigweed [1]; [15]): 100; Plant response rating, Pigweed (pigweed [2]; [14]): 100; Pigweed plant response rating (pigweed [2]; 500 g ai/ha): 100; Plant response rating (0 to 100), Oilseed Rape (oilseed rape; 250 g ai/ha): 65; Plant response rating (0 to 100), Crabgrass, Large (large (Lg) crabgrass [3]; 250 g ai/ha, postemergence): 20; Plant response rating (0 to 100), Johnsongrass (johnsongrass; 250 g ai/ha, postemergence): 25; Plant response rating, Crabgrass, Large (large (Lg) crabgrass [4]; [14]): 70; Plant response rating, Crabgrass, Large (large (Lg) crabgrass [4]; 500 g ai/ha, 0 to 100 scale, 0 no effect, 100 complete control): 90; Plant response rating, Crabgrass, Large (large (Lg) crabgrass [5]; [14]): 100; Crabgrass, Large plant response rating (large (Lg) crabgrass [5]; 500 g ai/ha, 0 to 100 scale, 0 no effect, 100 complete control, approx. 10 days): 100 |
